According to patent publication US7767642B2, “Therapeutic peptides for the treatment of metastatic cancer” (Arizona Biomedical Research Commission, priority 2005, dated 2010):
Several values for one entry are separate records, joined by “and”; a condition that tells them apart may be missing. Equal entries are not always repeated. Where no end group is shown, it is not given here. TAT = Protein Transduction Domain of the HIV protein TAT (trans-activating transcriptional activator protein), a cell-penetrating sequence

Legend:
[1] = tested on: MDA-MB-468 breast cancer cells; assay: Transwell collagen gel invasion assay, peptides delivered with Bioporter; assay type: cell-based
Protocol: FIG. 1. […] A collagen gel matrix was poured onto the bottom of 8 uM pore sized-transwell inserts (modified Boyden's chamber), then inverted into 20% FBS. Cells were incubated with 100 ng/ml of peptide (with Bioporter reagent to allow for cellular uptake), then added to the top of the Transwell. Cells (serum-free) were allowed to invade into the gel, the gel was removed and invading cells enumerated.
(§1) Peptide treatment and invasion assay: 8 um pore size Transwell inserts (Corning) will be inverted and coated with 90 ul of Type I collagen (rat tail, BD Scientific) gel mixture (2.2% sodium bicarbonate, 10× M199 media), and allowed to solidify for 30 minutes. Wells are then be inverted into DMEM with 20% fetal calf serum and allowed to rehydrate. Peptides are incubated with BioPORTER reagent (Sigma, St. Louis Mo.) for 5 minutes to promote cellular uptake, vortexed, and added to cells in serum-free media (10 ng/ml, 100 ng/ml and […] concentrations will be tested) and placed in the upper chamber of the Transwell. Cells will then be incubated for 2, 4 or 24 hours. Media is removed and gels fixed with 4% paraformaldehyde for 30 minutes and transferred to PBS, pH 7.4. Collagen gels will then either be stained with bizbenzamide for 40 minutes and all cells invaded into a gel enumerated or used in immunofluorescence assays. Invasion of peptide-treated cells are compared to PBS/bioporter treated controls or irrelevant peptide treatment.
To investigate the functional significance of MUC1 expression on breast cancer invasion, we have incubated invasive breast cancer cell lines with MUC1-mimetic peptides designed to the β-catenin interacting domain. We then monitored the effects of peptide treatment on invasion through a filter and into a collagen gel.
We performed initial experiments with these β-catenin-binding site (M2) peptides in MDA-MB-468 cells. […] We observed less than 15 M2 peptide-treated cells invaded into a collagen matrix in a 4 hour period, compared to approximately 125 cells in PBS controls.

[2] = tested on: MDA-MB-231 and MDA-MB-468 invasive breast cancer cell lines; assay: Invasion assay with TAT-conjugated MUC1-mimetic peptides, cell line not given; assay type: cell-based; conditions: TAT-conjugated peptide
Protocol: as §1
We have designed TAT-conjugated MUC1-mimetic peptides for their ability to inhibit the invasion of MDA-MB-231 and MDA-MB-468 invasive breast cancer cell lines.
Peptides were designed to carry the TAT transduction domain for entry into cells. The following peptides were designed, produced and tested: […]

MDA-MB-231 cell line [3] = assay: Scid xenograft model Trial II, i.v. treatment; assay type: in vivo; conditions: 20 ug/g body weight i.v.
Protocol: Trial II: The MDA-MB-231 cell line was injected (in matrigel) into the mammary fat pad of 16 mice. These mice were then divided into 2 groups and injected once daily, MTWThF, for 2 weeks.
Group IIA was treated (i.v.) with 20 ug/g body weight MEBTAT peptide
Group IIB was treated (i.v.) with 20 ug/g body weight TAT peptide
All animals were sacrificed and analyzed for metastases.

MDA-MB-231 cells = assay: 96-well invasion assay of MEBTAT and alanine-scanning mutants; assay type: cell-based; conditions: 96-well format, 1 hour treatment, 18 hours invasion
Protocol: The amino acids of the MEB sequence [PYEKVSAGNGGSSLS; SEQ ID NO: 1] were replaced, one amino acid at a time, with alanine. (Note that there are only […] mutants, as one of the parental amino acid residues. was already an alanine). Note also that this experiment was done one time, with 4 replicas at each data point.
A new assay was performed in a 96-well format. While the suppression of invasion is not as robust as that observed in the 24-well format, we still observe a 3-fold suppression of invasion with MEBTAT treatment over TAT or PBS. […] Altering any of the remaining amino acids completely eliminated the effect, indicating a critical role for both the YEKV (EGFR/src binding site) and the SAGNGGSSLS (beta-catenin binding site). Also important is the P (at residue #1) that links MEB to the TAT. The proline could be providing important access of the peptide to MUC1 binding sites.
MDA-MB-231 cells were treated for 1 hour with MEBTAT (M), TAT (T), PBS (P), or alanine scanning mutants of MEBTAT. Cells were treated with Calcein-AM and allowed to invade across an 8-uM Transwell into a Type I collagen gel for 18 hours. Invasion was analyzed by spectrophotometry.

MDA-MB-231 cell line [4] = assay: Scid xenograft model Trial 1, i.p. treatment; assay type: in vivo; conditions: for animals with tumor regression / tumor regression in the regressing animal: once daily MWF
Protocol: Trial 1. The MDA-MB-231 cell line was injected (in matrigel) into the mammary fat pad of 24 mice. These mice were then divided into 3 groups and injected once daily, MWF, for 2 weeks.
Group IA was treated (i.p.) with 10 ug/g body weight MEBTAT peptide
Group IB was treated (i.p.) with 20 ug/g body weight MEBTAT peptide
Group IC was treated (i.p.) with 20 ug/g body weight TAT peptide
At the end of 2 weeks, we had 27% tumor regression in 1/7 animals in group IA, 7% tumor regression in 1/7 animals in group IB, and no tumor regression (0/7) in group IC.
All tumors were surgically resected 3 days after final drugging, and the mice were monitored for an additional 10 days. […] This correlates to a 25% increase in overall survival time for the animals taking 20 ug/g body weight of MEBTAT compared to TAT.

β-catenin = target: T1, β-catenin (Homo sapiens, UniProt P35222); assay: β-catenin localization after peptide treatment; assay type: cell-based; conditions: MDA-MB-231 cells treated with peptide
T1 construct: endogenous in cells; host or cells: MDA-MB-231 breast cancer cells
T1 sequence (P35222 1-781): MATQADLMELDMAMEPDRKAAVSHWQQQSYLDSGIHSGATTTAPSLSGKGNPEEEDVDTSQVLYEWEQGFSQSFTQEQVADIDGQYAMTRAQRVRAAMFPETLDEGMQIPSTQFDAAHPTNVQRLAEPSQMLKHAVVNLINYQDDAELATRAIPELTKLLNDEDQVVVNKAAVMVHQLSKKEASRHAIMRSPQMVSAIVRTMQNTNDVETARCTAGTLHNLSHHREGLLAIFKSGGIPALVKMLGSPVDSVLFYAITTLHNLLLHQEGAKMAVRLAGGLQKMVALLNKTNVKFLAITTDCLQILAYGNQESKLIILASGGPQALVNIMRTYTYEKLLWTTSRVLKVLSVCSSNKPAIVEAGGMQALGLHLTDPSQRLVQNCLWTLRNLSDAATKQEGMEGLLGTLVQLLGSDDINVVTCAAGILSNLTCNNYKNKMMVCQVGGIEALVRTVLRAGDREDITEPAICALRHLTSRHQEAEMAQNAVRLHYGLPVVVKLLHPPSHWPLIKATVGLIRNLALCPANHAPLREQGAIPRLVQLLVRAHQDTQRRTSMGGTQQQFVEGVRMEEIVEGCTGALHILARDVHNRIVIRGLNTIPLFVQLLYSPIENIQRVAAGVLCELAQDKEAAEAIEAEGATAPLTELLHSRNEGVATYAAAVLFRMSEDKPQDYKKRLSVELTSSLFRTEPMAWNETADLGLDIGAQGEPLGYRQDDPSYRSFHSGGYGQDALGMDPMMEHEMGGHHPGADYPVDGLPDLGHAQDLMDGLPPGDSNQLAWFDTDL
Protocol: Immunofluorescence: Cells undergoing invasion through collagen gels are immunofluorescently labeled in situ (while in the collagen gel). For immunofluorescence on collagen gels, gels are permeabilized with 0.5% Triton X-100 in 10 mM Pipes (pH 6.8), 50 mM NaCl, 300 mM sucrose and 3 mM MgCl2 for 5 minutes at room temperature. Gels are blocked with 3% BSA (Sigma), 0.05% Tween 20, in a 1:1 solution of PBS and Enhancing Wash Buffer (Innovex). Primary antibodies are incubated overnight at 4° C., and gels washed for 6 hours in 1:1 PBS: Enhancing Wash Buffer. Secondary antibodies are incubated overnight at 4° C., and washed again for 6 hours at room temperature. Gels are then mounted, coverslipped and analyzed using a Zeiss laser scanning confocal microscope. The following antibodies are used: anti-biotin (streptavidin-Alexa594, 1:500, Molecular Probes), anti-Muc1 (1:100, Santa Cruz), anti-vinculin (V9131, 1:400, Sigma Chemical Company) anti-β-catenin (H-102, 1:100, Santa Cruz Biochemical), anti-fascin (FCN01, 1:50, Neomarkers), and phalloidin-Alexa546 (1:100, Molecular Probes). Secondary antibodies can be either Alexa 488 or 546 from Molecular Probes.

[5] = tested on: MDA-MB-231 breast cancer cells; assay: Invasion assay with TAT-conjugated MUC1-mimetic peptides; assay type: cell-based; conditions: MDA-MB-231, compared to control TAT peptide
Protocol: FIG. 4. Treatment of MDA-MB-231 cells with MEBTAT leads to a 5-fold decrease in cell invasiveness as compared to control TAT peptide in invasion assays.
as §1
We have designed TAT-conjugated MUC1-mimetic peptides for their ability to inhibit the invasion of MDA-MB-231 and MDA-MB-468 invasive breast cancer cell lines. […]

[6] = 10 ug/g body weight i.p., end of 2 weeks
[7] = 20 ug/g body weight i.p., end of 2 weeks

## M2: MUC1-β-catenin binding domain mimetic peptide, SEQ ID NO: 7 (SAGNGGSSLSY; listed as Homo sapiens)
[1]; 4 hour period, approximately 125 cells in PBS controls
  cells invaded into a collagen matrix: less than 15 cells
[1]; MDA-MB-468, 100 ng/ml peptide with Bioporter, vs PBS controls
  inhibition of invasion into a collagen matrix: approximately 8 fold
[1]; MDA-MB-468, compared to PBS treated controls
  effect on invasion: inhibits invasion

## TAT-SSTDRSPYEKVSAGNGGSSLSYTNP ({TAT}-SSTDRSPYEKVSAGNGGSSLSYTNP; listed as Homo sapiens) [MTAT1, used for positive controls, reference compound]
[2]
  increase of invasion: 18 fold

## TAT-PYEKVSAGNGGSSLS ({TAT}-PYEKVSAGNGGSSLS; listed as Homo sapiens) [MEBTAT]
MDA-MB-231 cell line [3]; 2 weeks
  toxicity: no detectable toxicity
MDA-MB-231 cell line [3]; end of 2 weeks, individual mice
  tumor volume reduction in regressing animals: 7% and 9% and 21%
MDA-MB-231 cell line [3]; once daily MTWThF, end of 2 weeks
  animals with tumor regression: 3/8
MDA-MB-231 cell line [3]; sacrifice at 2 weeks
  visible metastases in diaphragms (animals): 4/8
  visible metastases in livers (animals): 1/8
  visible metastases in lungs (animals): 0/8
MDA-MB-231 cells
  suppression of invasion over TAT or PBS: 3 fold
MDA-MB-231 cell line [4]; [6]
  animals with tumor regression: 1/7
  tumor regression in the regressing animal: 27%
MDA-MB-231 cell line [4]; 20 ug/g body weight i.p.
  increase in overall survival time compared to TAT: 25%
MDA-MB-231 cell line [4]; [7]
  animals with tumor regression: 1/7
  tumor regression in the regressing animal: 7%
MDA-MB-231 cell line [4]; 10 and 20 ug/g body weight i.p., 2 weeks
  toxicity of the peptide treatment: no detectable toxicity
MDA-MB-231 cell line [4]; all 3 groups, monitored 10 days after resection
  tumor regrowth after surgical resection: no statistically significant difference in growth rates
MDA-MB-231 cell line [4]; all treatment groups, i.p., end of 2 weeks
  decrease in tumor volume compared to TAT: 20%
β-catenin
  β-catenin localization: β-catenin localization at sites of focal adhesion and lamellapodia
[5]
  decrease in cell invasiveness / block of invasion: 5 fold and 6 fold

## TAT-SAGNGGSSLS ({TAT}-SAGNGGSSLS; listed as Homo sapiens) [MBTAT]
[2]
  suppression of invasion: 8 fold
